{
  "source": "patent US20160324992A1",
  "about": "“IDENTIFICATION AND TREATMENT OF VULNERABLE PLAQUES” (OTTAWA HEART INSTITUTE RESEARCH CORPORATION, priority 2015, published 2016)",
  "key": {"[1]": {"tested_on": "FADD-deficient variant of human Jurkat T cells treated with TNF-α", "settings": "SAR study of Teng et al. 2005, relative to Nec-1; cited from earlier work"}, "[2]": {"tested_on": "atherosclerotic lesions in ApoE−/− mice", "assay": "Ex vivo autoradiography of aorta, en face and Oil Red O comparison", "assay_type": "in vivo, mouse", "settings": "ApoE−/− mice, ˜1 mCi of tracer, 2 hr post injection", "description": "Radiochemistry and ex vivo autoradiography study with ApoE^−/− mice. The tracer ^123I-Nec-1 (7-^123I-Nec-1) was synthesized by a Cu(I) catalyzed direct halogen exchange reaction with the precursor 7-Br-Nec-1 and Na^123I. Eight week-old female apolipoprotein E knockout (Apo E^−/−) mice were purchased from Charles River Laboratories and fed either a chow or western diet (TD.10885, Harlan Laboratories) for 2 months (total n=6 mice). 7-^123I-O-Nec-1 (37.0-55.5 MBq) was administrated intravenously into the mice under anesthetic. After 2 hr, the mice were euthanized and perfused with PBS followed by 10% formalin via left ventricle cannulation. Aorta was dissected from heart at the base using a dissecting microscope following removal of surrounding fat and connective tissue. En face specimens were immediately exposed to super resolution phosphor screens in an autoradiography cassette. After overnight exposure at room temperature, the screens were scanned with a Cyclone Phosphor Imager (Perkin Elmer, Downers Grove, Ill.). Images were analyzed using OptiQuant™ 5.0 software. The regions of interest (ROI) were drawn around the lesions on the aortic arch, and the counts in Digital Light Unit (DLU) and surface areas in mm^2 were measured. The DLU was converted to activity in μCi using a set of calibration standards with known activities, which were exposed and scanned on the same screen used for the aorta samples, as previously described (Zhao et al, 2007; Matter et al., 2006). The percentage injected dose (% ID) was calculated from dividing the activity (pCi) of the lesion by the injected activity. Activity density in % ID/m^2 was calculated and normalized by animal body weight to get % ID×kg/m^2. The areas of the lesions and the whole aortic arch in mm^2 were also recorded using the OptiQuant™ 5.0 software, and the percentage of lesion within the area of the aorta vessel wall was calculated.\nEx vivo autoradiography study with ApoE^−/− mice. Eight week-old female apolipoprotein E knockout (Apo E^−/−) mice were purchased from Charles River Laboratories (Charles River, Canada) and fed either a chow or western diet (TD.10885, Harlan Laboratories) for 2 months (n=3 per group). […] 7-^123I-O-Nec-1 (37.0-55.5 MBq) was administrated intravenously into the mice under anesthetic. After 2 hr, the mice were euthanized in a CO2 chamber. Using a Gilson Minipuls 2 peristaltic pump, the mice were perfused with 20 mL phosphate buffered saline (PBS) followed by 10 mL of 10% formalin via left ventricle cannulation. Perfusate was drained from a cut within the right atrium. Aorta was dissected from heart at the base using a dissecting microscope following removal of surrounding fat and connective tissue. For en face experiments aortic tissues were flattened by a longitudinal cut through one side of the aortic wall cutting through the carotids and the innominant artery until the aorta was split forming a Y-shaped structure.\nThe uptake and distribution of the tracer on aortic tissue was studied using digital autoradiography method. En face specimens were immediately exposed to super resolution phosphor screens in a Fisher Biotech autoradiography cassette. After overnight exposure at room temperature, the screens were scanned with a Cyclone Phosphor Imager (Perkin Elmer, Downers Grove, Ill.). Images were analyzed using OptiQuant™ 5.0 software. The regions of interest (ROI) were drawn around the lesions on the aortic arch, and the counts in Digital Light Unit (DLU) and surface areas in mm^2 were measured. The DLU was converted to activity in pCi using a set of calibration standards with known activities, which were exposed and scanned on the same screen used for the aorta samples. The percentage injected dose (% ID) was calculated from dividing the activity (pCi) of the lesion by the injected activity. Activity density in % ID/m^2 was calculated and normalized by animal body weight to get % ID×kg/m^2. […]"}, "[3]": {"tested_on": "ApoE−/− mice with established atherosclerosis", "assay": "Atherosclerosis study: time-release pellets in Western diet fed ApoE−/− mice", "assay_type": "in vivo, mouse", "description": "Atherosclerosis Studies. All animal experiments were performed in accordance with the Animal Care and Use Committee, University of Ottawa, Canada. Eight week old Apo E^−/− mice (total n=17 mice) were fed an adjusted calories diet (21% fat; 0.2% cholesterol, Harlan Teklad) for 4 weeks to induce atherosclerotic progression. Mice were then injected with time-release placebo or Nec-1s tablets (2 mg/kg/day), which were synthesized by Innovative Research of America, USA. Mice were euthanized after 6 weeks of treatment, perfused with saline and aortic roots were embedded in OCT medium and frozen. Aortic roots were sectioned (10 μm) and stained with hematoxylin and eosin for lesion area and necrotic core quantification, and a minimum of 10 sections per animal were measured across the length of the entire aortic root. For en face aortic lesion quantifications, aortas were dissected removing all branching vessels down to the femoral bifurcation and then sliced ventrally and images of aortas were digitally captured using ImagePro™. Lesion areas within the entire length of the aorta were quantified using Image J™ and expressed relative to the total aortic surface area. Immunohistochemistry for vascular smooth muscle cells was performed using a primary antibody for a-smooth muscle actin (monoclonal, Sigma) conjugated to alkaline phosphatase and visualized using SigmaFAST Red (Sigma). Statistical significance between the two groups were analyzed using Students' t-test (p<0.05).\nAtherosclerosis Studies. All animal experiments were performed in accordance with the Animal Care and Use Committee, University of Ottawa, Canada. Eight week old apoE−/− mice (total n=17 mice) were fed an adjusted calories diet (21% fat; 0.2% cholesterol, Harlan Teklad) for 4 weeks to induce atherosclerotic progression. Mice were then injected with time-release placebo or stable Necrostatin-1 (Nec-1)15 tablets (2 mg/kg/day), which were synthesized by Innovative Research of America, USA. Mice were euthanized after 6 weeks of treatment, perfused with saline and aortic roots were embedded in OCT medium and frozen. Aortic roots were sectioned (10 μm) and stained with hematoxylin and eosin for lesion area and necrotic core quantification, and a minimum of 10 sections per animal were measured across the length of the entire aortic root. For en face aortic lesion quantifications, aortas were dissected removing all branching vessels down to the femoral bifurcation and then sliced ventrally and images of aortas were digitally captured using ImageProTM. Lesion areas within the entire length of the aorta were quantified using Image JTM and expressed relative to the total aortic surface area. Immunohistochemistry to visualize macrophages and smooth muscle cells was performed using primary antibodies to CD68 (rat monoclonal, Serotec) or phosho-MLKL (rabbit polyclonal, Abcam) with a secondary conjugated to biotin and α-smooth muscle actin (monoclonal, Sigma) conjugated to alkaline phosphatase and visualized using DAB or SigmaFAST Red (Sigma), respectively. Image J was used to quantify positive staining area and statistical significance between the two groups were analyzed using Students' t-test (p<0.05)"}, "[4]": {"tested_on": "bone-marrow-derived macrophages (BMDMs)", "assay_type": "cell-based", "settings": "BMDMs", "description": "(§1) Bone-marrow derived macrophages. Bone-marrow derived macrophages (BMDMs) were isolated from femurs of adult VVT or Rip3^−/− mice and differentiated into macrophages using DMEM supplemented with 10% FBS and 1% penicillin-streptomycin plus either 20% L929 conditioned media or 20 ng/mL mouse M-CSF for 7-10 days. To polarize macrophages to M1 or M2, BMDMs were incubated on day 7 with 1 μg/mL LPS and 100 ng/mL IFNγ or 10 ng/mL IL-4 respectively for 24 h. Damage Associated Molecular Patterns (DAMPs) were obtained by subjecting BMDMs to 3×30 min freeze-thaw cycle or treatment with 100 ng/mL LPS and 50 μM zVAD.fmk for 24 hours, after which the media was collected and added to naïve cells at indicated ratios.\n(§2) Cell viability assays. Cell death was determined by measuring lactate dehydrogenase (LDH) release into the media. Briefly, cells were treated with 100 μg/ml oxLDL in the presence or absence of 25 μM zVAD.fmk or 50 μM necrostatin-1 (Nec-1) for 24 hours and media was collected and centrifuged to pellet cell debris. The amount of LDH in media was measured in a kinetic assay by adding PBS containing 0.02% NADH and 0.03% sodium pyruvate and measuring absorbance at 340 nm for 10 minutes at 1 minute intervals. The slope of the curve provides a measure of cell death, which was expressed as fold change relative to control.\nas §1, with “Rip3−/−” for “Rip3^−/−”\nas §2, with “ug/ml” for “μg/ml”, “uM” for “μM”"}},
  "note": "Where two headings read alike, the source gives them in different places. Residues, ends and D or L forms follow the SMILES beside them. *: point of attachment. Cbz = O=C(OCc1ccccc1)*; CH2F = FC*",
  "data": [
    {"smiles": "CN1C(=O)C(Cc2c[nH]c3c(Cl)cccc23)NC1=S", "note": "(centres unmarked) [7-Cl-Nec-1]", "values": [
      {"measurement": "necroptosis inhibitory activity (in words)", "setting": "[1]", "result": "increased activity"}
    ]},
    {"smiles": "COc1ccc([C@@H]2[C@@H]3CCc4ccc([123I])cc4C3=NN2C(C)=O)cc1", "note": "[8-^123I-Nec-3R]", "values": [
      {"measurement": "uptake in atherosclerotic lesions by autoradiography (in words)", "setting": "[2]", "result": "significant lesion uptake"}
    ]},
    {"smiles": "O=C1NC(=S)NC1Cc1c[nH]c2ccccc12", "note": "(centres unmarked) [Nec-1i]", "values": [
      {"measurement": "necroptosis inhibitory activity (in words)", "setting": "[1]", "result": "completely abolished"}
    ]},
    {"smiles": "CN1C(=O)NC(Cc2c[nH]c3c(Cl)cccc23)C1=O", "note": "(centres unmarked) [Nec-1s]", "values": [
      {"measurement": "atherosclerotic lesion area versus placebo (in words)", "setting": "[3]; Western diet 4 weeks then 2 mg/kg/day for 6 weeks", "result": "reduced en face lesion areas"},
      {"measurement": "reduction of lesion necrotic core area compared to placebo", "setting": "[3]; aortic sinus, 2 mg/kg/day, 6 weeks", "result": 62, "unit": "%"}
    ]},
    {"smiles": "COC(=O)C[C@H](NC(=O)[C@H](C)NC(=O)[C@@H](NC(=O)OCc1ccccc1)C(C)C)C(=O)CF", "note": "[zVAD.fmk] (Cbz-Val-Ala-Asp(OMe)-CH2F)", "values": [
      {"measurement": "cell death (LDH release), fold change relative to control", "setting": "[4]; 100 μg/mL oxLDL + 25 μM zVAD.fmk, 24 h, mean±SEM", "result": "5.7±0.7", "unit": "fold"},
      {"measurement": "effect on cell death in response to oxLDL (in words)", "setting": "[4]; oxLDL + pan caspase inhibitor zVAD.fmk 25 μM, 24 h", "result": "significantly enhanced cell death"}
    ]},
    {"smiles": "COC(=O)C[C@H](NC(=O)[C@H](C)NC(=O)[C@@H](NC(=O)[C@H](Cc1ccc(O)cc1)NC(=O)OCc1ccccc1)C(C)C)C(=O)CF", "note": "[zYVAD.fmk]", "values": [
      {"measurement": "effect on cell death in response to oxLDL (in words)", "setting": "[4]; co-treatment with caspase-1 inhibitor zYVAD.fmk 20 uM", "result": "did not reduce or prevent cell death"}
    ]}
  ]
}
